Assay results: PubChem BioAssay (NCI)
Several values for one entry are separate records, joined by “and”; a condition that tells them apart may be missing. Identical values can stand only once.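 Cells were grown in 96-well plates and exposed to each compound for 48 hours at five concentrations; endpoints were interpolated linearly between bracketing concentrations, or set to the highest concentration if not reached. GI50 is the concentration that inhibits growth by half. TGI: concentration producing complete growth inhibition.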

Legend:
Test in all cases: DTP human tumour cell line panel, 48 h
A549 NSCLC = test system: A549 NSCLC
K-562 leukemia = test system: K-562 leukemia
LOX IMVI melanoma = test system: LOX IMVI melanoma
NCI-H23 lung = test system: NCI-H23 lung
NCI/ADR-RES ovarian = test system: NCI/ADR-RES ovarian
OVCAR-4 ovarian = test system: OVCAR-4 ovarian
SK-MEL-2 melanoma = test system: SK-MEL-2 melanoma
SR leukemia = test system: SR leukemia
SW-620 colon = test system: SW-620 colon
UACC-257 melanoma = test system: UACC-257 melanoma

| Compound | GI50 (A549 NSCLC) [µM] | TGI (A549 NSCLC) | GI50 (K-562 leukemia) [nM] | TGI (K-562 leukemia) [µM] | GI50 (LOX IMVI melanoma) [nM] | TGI (LOX IMVI melanoma) | GI50 (NCI-H23 lung) [µM] | TGI (NCI-H23 lung) | GI50 (NCI/ADR-RES ovarian) | TGI (NCI/ADR-RES ovarian) | GI50 (OVCAR-4 ovarian) | TGI (OVCAR-4 ovarian) | GI50 (SK-MEL-2 melanoma) | TGI (SK-MEL-2 melanoma) | GI50 (SR leukemia) [nM] | TGI (SR leukemia) | GI50 (SW-620 colon) [nM] | TGI (SW-620 colon) | GI50 (UACC-257 melanoma) | TGI (UACC-257 melanoma) |
| --- | --- | --- | --- | --- | --- | --- | --- | --- | --- | --- | --- | --- | --- | --- | --- | --- | --- | --- | --- | --- |
| COC1/C=C/OC2(C)Oc3c(C)c(O)c4c(O)c(c(/C=N/N(c5ccccc5)c5ccccc5)c(O)c4c3C2=O)NC(=O)C(C)=C/C=C/C(C)C(O)C(C)C(O)C(C)C(OC(C)=O)C1C (stereo unspecified) | 2.11 | 7.8 µM | 1590 | 5.69 | 1040 | 2.41 µM | 1.96 | 8.98 µM | 3.76 µM | 12.6 µM | 1.95 µM | 7.6 µM | 1.84 µM | 7.14 µM | 1400 | 3.39 µM | 1050 | 2.6 µM | 1.48 µM | 5.44 µM |
| O=[N+]([O-])c1cc(C(F)(F)F)cc2n[se]nc12 |  | 27 µM |  | 5.14 |  | 14.4 µM |  | 9.58 µM |  | 5.11 µM |  | 3.84 µM |  | 22.7 µM |  | 4.39 µM |  | 3.11 µM |  | 4.56 µM |
| CCN(CC)CCNc1ccc(N=Nc2cnc3ccccc3c2)c2ccccc12 | 1.92 | 3.5 µM | 1030 | 2.3 | 1430 | 2.77 µM | 1.6 | 3.07 µM | 2.29 µM | 5.15 µM | 1.85 µM | 3.88 µM | 2.34 µM | 4.3 µM | 590 | 2.08 µM | 1830 | 3.47 µM | 1.96 µM | 3.49 µM |
| Cc1c(C(=O)/C=C/c2ccc(Cl)cc2)nnn1-c1ccnc2c(C(F)(F)F)cccc12 | 23.7 | > 100 µM | 8670 | > 100 | 23300 | > 100 µM | 35.8 | > 100 µM | 48.4 µM | > 100 µM | 0.151 µM | 0.966 µM | > 100 µM | > 100 µM | 8710 | 55.2 µM | > 100000 | > 100 µM | 30.2 µM | > 100 µM |
| COc1ccc2[nH]cc(Cc3c[nH]c4ccc(OC)cc34)c2c1 | 19.1 | 46.9 µM | 19100 | 71.4 | 14900 | 28.1 µM | 21.7 | 40.7 µM | 20.4 µM | 42.1 µM | 17.6 µM | 40.3 µM | 17.4 µM | 43.3 µM | 77800 | > 100 µM | 18300 | 32.2 µM | 32.4 µM | 88.1 µM |
| N#Cc1ccc(O)c(C2=NCC(c3ccc(-c4ccccc4)cc3)O2)c1 (stereo unspecified) | 0.418 | 8.06 µM | 338 | > 100 | 57.9 | 10.8 µM | 0.703 | 17.2 µM | 0.148 µM | 5.7 µM | 0.32 µM | 10.1 µM | 0.746 µM | 15.8 µM | 529 | > 100 µM | 387 | 31.2 µM | 1.15 µM | 7.96 µM |
| CC(C)c1ccc(C(c2c(O)c3ccccc3oc2=O)c2c(O)c3ccccc3oc2=O)cc1 |  | 45.7 µM |  | 51.4 |  | 33 µM |  | 51.6 µM |  | 65.9 µM |  | 94 µM |  | 30.8 µM |  | 31.1 µM |  | 34.2 µM |  | 53 µM |
| COc1ccc(C(=O)/C=C/c2c(C(F)(F)F)nc3ccccn23)cc1OC | 3.38 | > 100 µM | 377 | > 100 | 584 |  | 1.66 | > 26.9 µM | 0.877 µM | 6.25 µM | 3.28 µM | > 48.6 µM | 1.72 µM | 5.09 µM | 272 | 0.964 µM | 527 | > 100 µM | 2.43 µM | > 100 µM |
| CN(C)c1ccc(/C=N/n2c(CCCCc3n[nH]c(=S)n3/N=C/c3ccc(N(C)C)cc3)n[nH]c2=S)cc1 | > 100 | > 100 µM | > 100000 | > 100 | > 100000 | > 100 µM | > 100 | > 100 µM | > 100 µM | > 100 µM | > 100 µM | > 100 µM | > 100 µM | > 100 µM | > 100000 | > 100 µM | > 100000 | > 100 µM | > 100 µM | > 100 µM |
| Cc1ccc2c(c1)C(=O)/C(=C/c1cccc(OCC(=O)c3ccc(Cl)cc3)c1)CS2 | 33.4 | > 100 µM | 2450 | 8.2 | 1840 | 3.87 µM | 3.03 | 23.4 µM | 2.68 µM | 9.02 µM | 4.07 µM | 18.5 µM | 8.03 µM | 22.3 µM | 1800 | 4.28 µM | 1950 | 4.19 µM | 13.9 µM | 33.3 µM |
| COc1ccc2c(c1)C(=O)/C(=C/c1cccc(OCC(=O)c3ccc([N+](=O)[O-])cc3)c1)CO2 | 6.72 | 22.8 µM | 1960 | > 22.4 | 1470 | 2.88 µM | 2.52 | 6.33 µM | 2.03 µM | 5.02 µM | 4.36 µM | 17.2 µM | 1.64 µM | 4.2 µM | 1150 | 12.9 µM | 1450 | 2.96 µM | 3.73 µM | 10.2 µM |
| COC(=O)c1cc2c([nH]c3ccccc32)c(-c2nc3ccccc3cc2CO)n1 | > 100 | > 100 µM | > 100000 | > 100 | > 100000 | > 100 µM | > 100 | > 100 µM | > 100 µM | > 100 µM | > 100 µM | > 100 µM | > 100 µM | > 100 µM | > 100000 | > 100 µM | > 100000 | > 100 µM | > 100 µM | > 100 µM |
| N#Cc1ccc(C(=O)c2cnn(-c3ccc(F)cc3)c2N)cc1 | > 25 | > 25 µM | > 25000 | > 25 | > 25000 | > 25 µM | > 25 | > 25 µM | > 25 µM | > 25 µM | > 25 µM | > 25 µM | > 25 µM | > 25 µM | > 25000 | > 25 µM | > 25000 | > 25 µM | > 25 µM | > 25 µM |
| Cn1c2ccccc2c2c(=O)n(CCCC(=O)NCCc3cnc[nH]3)c3c(-c4ccccc4)nnn3c21 | 12.8 | 24.2 µM | 8900 | 27 | 11200 | 22.9 µM | 13.3 | 46.9 µM | > 50 µM | > 50 µM | 10.1 µM | 20.5 µM | 10.3 µM | 21 µM | 4030 | > 50 µM | 13000 | 30.2 µM | 12 µM | 21.6 µM |
| O=C1NC(c2cccc3ccccc23)Nc2ccccc21 (stereo unspecified) | 0.0582 | > 100 µM | 7.58 |  | 38.9 | > 96.7 µM | 0.0262 | 24.8 µM |  | 0.0707 µM and 0.0715 µM | 0.166 µM | > 100 µM |  | 7.5 µM and > 20.2 µM | 10.6 |  | 20.3 | > 56.6 µM |  | 32.6 µM |
| CN(CO)c1nc(N(C)CO)nc(N(C)CO)n1 | 23.5 | 64 µM and 26.3 µM | 27200 | 140 | 16200 | 36.6 µM and 26.8 µM | 25.4 | 59.8 µM and 91.7 µM | 21.7 µM and 20.7 µM | 54.6 µM and 57.4 µM | 18.9 µM and 23.8 µM | 39.1 µM and 55.6 µM | 15.5 µM and 5.47 µM | 32.1 µM and 11.2 µM | 28400 | > 77.1 µM and 1080 µM | 11500 | 43.6 µM and 70.6 µM | 20.6 µM and 21.8 µM | 40.7 µM and 44.4 µM |
| Fc1ccc(-c2c(-c3ccncc3)[nH]c3cccnc23)cc1 | 17 | > 25 µM | > 23100 | > 25 | > 21700 | > 25 µM | > 25 | > 25 µM | > 25 µM | > 25 µM | > 25 µM | > 25 µM | > 25 µM | > 25 µM | > 18900 | > 25 µM | > 25000 | > 25 µM | > 25 µM | > 25 µM |
| CCc1nc(N)nc(N)c1-c1ccc(N(C)Cc2ccccc2)c([N+](=O)[O-])c1 |  | 16 µM |  | 3.98 |  | 22.2 µM |  | 24.4 µM |  | 21.4 µM |  | 52.1 µM |  | 20 µM |  | 4.16 µM |  | 26.5 µM |  | 14.2 µM |
| O=C1/C=C/[C@@H](O)[C@@H]2C[C@@H](O)C[C@H]2/C=C/CCC[C@H](CCc2ccc(NC(=S)Nc3ccc4c(c3)C(=O)OC43c4ccc(O)cc4Oc4cc(O)ccc43)cc2)O1 | 0.448 | > 100 µM | 1170 | > 100 | 244 |  | 0.439 | > 74 µM | 0.407 µM | > 100 µM | 0.333 µM |  | 0.456 µM | 5.22 µM | 517 | > 100 µM | 337 |  | 0.547 µM | > 75.5 µM |
| CCCn1cc(/C=N\N=C2\C(=O)Nc3ccc(C)cc32)c2ccccc21 | 7.18 | 39.6 µM | 2220 | 20.5 | 1260 | 3.06 µM | 3.13 | 38.2 µM | 6.39 µM | 89.9 µM | 0.935 µM | 25.6 µM | 2.42 µM | 8.03 µM | 521 | 8.72 µM | 2970 | 35.3 µM | 12.3 µM | 66.6 µM |
